The term IC50 denotes the midpoint of a concentration-inhibition curve. Read a low IC50 as greater potency.

Drawing on US6326386A, “Benzamide derivatives as thrombin inhibitors” (Glaxo Group Limited, priority 1995, dated 2001), this text covers IC50 for 24 compounds.

The assay deals with T1, human α-thrombin (Homo sapiens, UniProt P00734).
T1 construct: human α-thrombin
Briefly: Inhibition of human α-thrombin in a chromogenic assay (N-p-tosyl-gly-pro-lys p-nitroanilide substrate). It is filed as biochemical. As to conditions: human α-thrombin 1 nM, substrate 100 μM, pH 7.4, room temperature, 405 nm; preincubation (zero or 15 mins) not given. As for the experimental part: All dilutions were made in a buffer consisting of: 50 mM HEPES, 150 mM NaCl, 5 mM CaCl2, 0.1% PEG and at pH 7.4. Briefly, the substrate (final conc. of 100 μM) was added to thrombin (final conc. of 1 nM) and the reaction monitored for 10 mins at 405 nm using a Biotek EL340 plate reader; the assay was performed at room temperature. To obtain IC50 s the data were analyzed using Kineticalc® with a 4-parameter curve fitting procedure to obtain the IC50 value.
The compounds of the present invention are thrombin inhibitors. The results below illustrate the thrombin activity of a range of compounds of formula (I) using the previously described biological method: […]
As for `Cc1cc(OCCNc2ccncc2)cc(C(=O)N(C)C2CCCCC2)c1` [Example 1, N-Cyclohexyl-3, N-dimethyl-5-[2-(pyridin-4-ylamino)-ethoxy]-benzamide], the midpoint of inhibition, the IC50, lay at 0.008 µM. Then `C=CCN(C(=O)c1cc(Cl)cc(OCCNc2ccncc2)c1)C1CCCC1` [Example 6, N-Allyl-3-chloro-N-cyclopentyl-5-[2-(pyridin-4-ylamino)-ethoxy]-benzamide], with 0.005 µM.

`O=C(c1cc(Cl)cc(OCCNc2ccncc2)c1)N(CCCO)C1CCCC1` [Example 9, 3-Chloro-N-cyclopentyl-N-(3-hydroxy-propyl)-5-[2-(pyridin-4-ylamino)-ethoxy]-benzamide] came in with an IC50 of 0.007 µM. The result for `O=C(c1cc(Cl)cc(OCCNc2ccncc2)c1)N(CCCN1CCOCC1)C1CCCC1` [Example 13, 3-Chloro-N-cyclopentyl-N-(3-morpholin-4-yl-propyl)-5-[2-(pyridin-4-ylamino)-ethoxy]-benzamide] reads 0.015 µM; that for `CCOC(=O)CCCN(C(=O)c1cc(Cl)cc(OCCNc2ccncc2)c1)C1CCCC1` [Example 17, 4-({3-Chloro-5-[2-(pyridin-4-ylamino)-ethoxy]-benzoyl}-cyclopentyl-amino)-butyric acid ethyl ester], 0.014 µM. On to `O=C(CCCN(C(=O)c1cc(Cl)cc(OCCNc2ccncc2)c1)C1CCCC1)N1CCCC1` [Example 20, 3-Chloro-N-cyclopentyl-N-(4-oxo-4-pyrrolidin-1-yl-butyl)-5-[2-(pyridin-4-ylamino)-ethoxy]-benzamide], for which the IC50 turned out to be 0.009 µM.

`CCCN(C(=O)c1cc(Cl)cc(OCCNc2ccncc2)c1)c1cc(F)cc(F)c1` [Example 29, 3-Chloro-N-(3,5-difluoro-phenyl)-N-propyl-5-[2-(pyridin-4-ylamino)-ethoxy]-benzamide]: the IC50 is 0.062 µM.

In turn, `O=C(CCCN(C(=O)c1cc(Cl)cc(OCCNc2ccncc2)c1)c1ccccc1F)N1CCCC1` [Example 37, 3-Chloro-N-(2-fluoro-phenyl)-N-(4-oxo-4-pyrrolidin-1-yl-butyl)-5-[2-(pyridin-4-ylamino)-ethoxy]-benzamide] displayed an IC50 of 0.017 µM. The result for `O=C(c1cc(Cl)cc(OCCNc2ccncc2)c1)N(CCCc1nnn[nH]1)c1ccccc1F` [Example 40, 3-Chloro-N-(2-fluoro-phenyl)-5-[2-(pyridin-4-ylamino)-ethoxy]-N-[3-(1H-tetrazol-5-yl)-propyl]-benzamide] reads 0.009 µM; that for `O=C(c1cc(Cl)cc(OCCNc2ccncc2)c1)N(CCOCC(O)CO)c1ccccc1` (stereo not drawn) [Example 41, 3-Chloro-N-[2-(2,3-dihydroxy-propoxy)-ethyl]-N-phenyl-5-[2-(pyridin-4-ylamino)-ethoxy]-benzamide], 0.028 µM. Turning to `CC(C)(C)NC(=O)CCN(C(=O)c1cc(Cl)cc(OCCNc2ccncc2)c1)c1ccccc1` [Example 47, N-(2-tert-Butylcarbamoyl-ethyl)-3-chloro-N-phenyl-5-[2-(pyridin-4-ylamino)ethoxy]-benzamide], the IC50 stood at 0.061 µM. `O=C(CCN(C(=O)c1cc(Cl)cc(OCCNc2ccncc2)c1)c1ccccc1)N1CCSCC1` [Example 49, 3-Chloro-N-(3-oxo-3-thiomorpholin-4-yl-propyl)-N-phenyl-5-[2-(pyridin-4-ylamino)-ethoxy]-benzamide] returned an IC50 of 0.038 µM. The compound `NC(=O)CCN(CC1CC1)C(=O)c1cc(Cl)cc(OCCNc2ccncc2)c1` [Example 55, N-(2-Carbamoyl-ethyl)-3-chloro-N-cyclopropylmethyl-5-[2-(pyridin-4-ylamino)-ethoxy]-benzamide] had an IC50 of 0.05 µM. Consider `CC(C)N(CCC(N)=O)C(=O)c1cc(Cl)cc(OCCNc2ccncc2)c1` [Example 58, N-(2-Carbamoyl-ethyl)-3-chloro-N-isopropyl-5-[2-(pyridin-4-ylamino)-ethoxy]-benzamide], for which 0.107 µM corresponded to half-maximal inhibition (IC50). For the compound `CC(C)N(CCCNS(C)(=O)=O)C(=O)c1cc(Cl)cc(OCCNc2ccncc2)c1` [Example 72, 3-Chloro-N-isopropyl-N-(3-methanesulfonylamino-propyl)-5-[2-(pyridin-4-ylamino)-ethoxy]-benzamide], the 50% inhibitory concentration (IC50) came out at 0.063 µM.

`O=C(c1cc(Cl)cc(OCCNc2ccncc2)c1)N(CCCn1cncn1)c1ccc(F)cc1` [Example 90, 3-Chloro-N-(4-fluoro-phenyl)-5-[2-(pyridin-4-ylamino)-ethoxy]-N-(3-[1,2,4]triazol-1-yl-propyl)-benzamide] returned an IC50 of 0.022 µM. The result for `O=C(c1cc(Cl)cc(OCCNc2ccncc2)c1)N(CCn1cncn1)C1CCCC1` [Example 91, 3-Chloro-N-cyclopentyl-5-[2-(pyridin-4-ylamino)-ethoxy]-N-(2-[1,2,4]triazol-1-yl-ethyl)-benzamide] reads 0.034 µM.

The compound `O=C(c1cc(Cl)cc(OCCNc2ccncc2)c1)N(CCCCn1cncn1)C1CCCC1` [Example 92, 3-Chloro-N-cyclopentyl-5-[2-(pyridin-4-ylamino)-ethoxy]-N-(4-[1,2,4]triazol-1-yl-butyl)-benzamide] yielded an IC50 of 0.015 µM. The result for `COCCN(C(=O)c1cc(Cl)cc(OCCNc2ccncc2)c1)C(C)C` [Example 99, 3-Chloro-N-isopropyl-N-(2-methoxy-ethyl)-5-[2-(pyridin-4-ylamino)-ethoxy]-benzamide] reads 0.04 µM; that for `CC(C)N(CCc1noc(O)n1)C(=O)c1cc(Cl)cc(OCCNc2ccncc2)c1` [Example 109], 0.14 µM; that for `CC(C)CN(Cc1ccc(C(=O)O)cc1)C(=O)c1cc(Cl)cc(OCCNc2ccncc2)c1` [Example 118, 4-[({3-Chloro-5-[2-(pyridin-4-ylamino)-ethoxy]-benzoyl}-isobutyl-amino)-methyl]-benzoic acid], 0.01 µM. On to `O=C(O)CCCCCN(CC1CCCCC1)C(=O)c1cc(Cl)cc(OCCNc2ccncc2)c1` [Example 124, 6-({3-Chloro-5-[2-(pyridin-4-ylamino)-ethoxy]-benzoyl}-cyclohexylmethyl-amino)-hexanoic acid], for which the IC50 stood at 0.028 µM. Then `O=C(O)CCCN(C(=O)c1cc(Cl)cc(OCCNc2ccncc2)c1)C1CCC1` [Example 128, 4-({3-Chloro-5-[2-(pyridin-4-ylamino)-ethoxy]-benzol}-cyclobutyl-amino)-butyric acid], with 0.041 µM; and `NC(=O)CCCCCN(Cc1ccco1)C(=O)c1cc(Cl)cc(OCCNc2ccncc2)c1` [Example 138, N-(5-Carbamoyl-pentyl)-3-chloro-N-furan-2-ylmethyl-5-[2-(pyridin-4-ylamino)-ethoxy]-benzamide], with 0.091 µM.
